Key:
[1] = Liquid, Custom Made Vibrating Tube Densimeter
[2] = xn = mol fraction of the nth substance listed; conditions: Liquid, Custom Made Vibrating Tube Densimeter, x1 = 1

C=C1CC[C@H]2C[C@@H]1C2(C)C [(1S,5S)-6,6-dimethyl-2-methylenebicyclo[3.1.1]heptane]
mass density [kg/m3], [1]
Conditions | 283.15 K | 298.15 K | 313.15 K | 328.15 K | 343.15 K | 358.15 K
20000 kPa | 891.3 | 880.2 | 869.3 | 858.2 | 847.7 | 837
25000 kPa | 894.2 | 883.3 | 872.6 | 861.7 | 851.4 | 840.9
30000 kPa | 897 | 886.3 | 875.7 | 865.2 | 855 | 844.8
35000 kPa | 899.9 | 889.3 | 878.8 | 868.7 | 858.6 | 848.7
40000 kPa | 902.6 | 892.2 | 882 | 872.2 | 862.1 | 852.6

C=C(C)[C@H]1CC=C(C)CC1 [(R)-1-methyl-4-(1-methylethenyl)cyclohexene]
mass density [kg/m3], [1]
Conditions | 283.15 K | 298.15 K | 313.15 K | 328.15 K | 343.15 K | 358.15 K
20000 kPa | 862 | 851.5 | 841 | 830.5 | 820.1 | 810.2
25000 kPa | 864.9 | 854.5 | 844.2 | 833.8 | 823.7 | 813.9
30000 kPa | 867.7 | 857.6 | 847.2 | 837.2 | 827.3 | 817.6
35000 kPa | 870.4 | 860.9 | 850.3 | 840.4 | 831.1 | 821.3
40000 kPa | 873.3 | 863.4 | 853.3 | 843.8 | 834.6 | 824.8

C=C(C)[C@H]1CC=C(C)CC1 [(R)-1-methyl-4-(1-methylethenyl)cyclohexene] + C=C1CC[C@H]2C[C@@H]1C2(C)C
mass density [kg/m3], [2]
Conditions | 283.15 K | 298.15 K | 313.15 K | 328.15 K | 343.15 K | 358.15 K
20000 kPa | 862 | 851.5 | 841 | 830.5 | 820.1 | 810.2
25000 kPa | 864.9 | 854.5 | 844.2 | 833.8 | 823.7 | 813.9
30000 kPa | 867.7 | 857.6 | 847.2 | 837.2 | 827.3 | 817.6
35000 kPa | 870.4 | 860.9 | 850.3 | 840.4 | 831.1 | 821.3
40000 kPa | 873.3 | 863.4 | 853.3 | 843.8 | 834.6 | 824.8

From the NIST ThermoML archive (doi:10.1016/j.jct.2011.12.013)
